What all share (type): physicochemical
A short description of data set [1]: Stability of vitamins in 35% glucose solution during sterilization (Cycles 1-4) and storage. The settings on record: for concentration, T1M40° C. / concentration, T3M40° C. / concentration, Cycle 3 T0 / concentration, T6M40° C. / concentration, Cycle 4 T0 / concentration, Unsterilized T0 / concentration, T6M40° C., sum of cyanocobalamin and hydroxocobalamin: 35% glucose solution; for concentration, T1M40° C.: 1 month 40° C.; for concentration, T3M40° C.: 3 months 40° C.; for concentration, Cycle 3 T0: Cycle 3 (water spray sterilization, Co = 25 minutes); for concentration, Cycle 3 T0 / concentration, Cycle 4 T0: after sterilization; for concentration, T6M40° C. / concentration, T6M40° C., sum of cyanocobalamin and hydroxocobalamin: 6 months 40° C.; for concentration, Cycle 4 T0: Cycle 4 (water spray sterilization, Co = 19 minutes); for concentration, Unsterilized T0: before sterilization. On the procedure:
(§1) For testing the stability of vitamin B12 in formulation as they are typically used in parenteral nutrition, a 35% glucose solution, a 14.2% amino acid formulation such as found, for example, in Olimel N9E (Baxter Int. Inc.), and a 20% lipid emulsion such as found in Clinoleic 20% (Baxter Int. Inc.) were supplemented with different vitamins combinations which always included vitamin B12. KC1 was added into the glucose solution to understand if it has an effect on the stability of vitamin B12. Vitamin B12 was introduced as […]. Ascorbyl palmitate was added to the lipid emulsion formulation as a stabilizing agent due to its antioxidant properties. In addition, two separate micellar solutions (“Vit A” and “Vit B”, see Table 5) comprising certain vitamins to be assessed with regard to degradation (B3, B6, B8, B9, B12, C) but formulated with different excipients as micellization agents were tested for vitamin B12 stability. Vit A consisted of a solution of mixed micelles with ascorbyl palmitate as a potential stability enhancer. Vit B was formulated with a mix of polysorbates, PEG and sorbitol to form micelles. The micellar solutions were prepared by mixing, under high speed, a solution composed of glycocholic acid and lecithins dissolved in water. In case of Vit B, the glycocholic acid and lecithin were replaced by PEG and polysorbate. All formulations were provided in standard flexible containers and overpouched with an aluminum overpouch for subsequent sterilization. For an overview over formulations and conditions see Table 5.
(§2) All samples were submitted to two different sterilization technologies. Steam sterilization targeting a Fo=8 min was. used for large volumes (400/800 ml, Cycle 2) and for small volumes (25/50 ml, Cycle 1) as lined out in Table 5 above. The same samples were sterilized by water spray sterilization with a serial tower continuous sterilization equipment with two different exposure times (Cycles 3 (25 min.) and 4 (19 min.)).
(§3) The vitamin recovery was then compared between the different sterilization cycles and formulations to understand the impact of the formulation and the sterilization technology used on their respective short- and long-term stability. Therefore, after sterilization, the samples were stored at 40° C./[…] for 6 months to evaluate the recovery of vitamin B12 at TIM, T3M and T6M. Besides, backup samples were stored at 5° C. Finally, some samples were also stored at 25° C./40% RH to provide for real time stability data.

Data set [2] in a line: Studies of cyanocobalamin in lipid emulsions (summary statement). On the procedure: (storage for 3 months at 40° C.), even though hydroxocobalamin seems to remain relatively stable for about 6 months at 40° C.
The nature of data set [3]: Stability of vitamin B12 in 20% lipid emulsion with ascorbyl palmitate during sterilization (Cycles 1-4) and storage. As to conditions: for concentration, T1M40° C.: 1 month 40° C.; for concentration, T6M40° C., sum of cyanocobalamin and hydroxocobalamin: 6 months 40° C. The protocol: as §1, §2, §3
Vitamin B12 was also considerably degraded in the lipid emulsion (Tables 8 through 11). […] It should thus be avoided in formulations according to the invention.

Where [4] appears, read: Cycle 1 (steam sterilization), 25 ml.
Setting [5] is: Cycle 2 (steam sterilization), 800 ml.

Results on five compounds are retold here after patent publication US20260232717A1, “PARENTERAL NUTRITION FORMULATION COMPRISING VITAMIN B12” (BAXTER INTERNATIONAL INC., priority 2020, published 2026).

Marks after values point to notes of the source that are not given here.

Take `O=C(O)c1cccnc1` [Batch B3, niacin]: the “concentration, T1M40° C.” value is listed as 49.30 mg/L in data set [1] (setting [4]) and 50.60 mg/L in data set [1] (setting [5]). Besides, the “concentration, T3M40° C.” value is 50.20 mg/L in data set [1] (setting [4]), 51.20 mg/L in data set [1] (setting [5]), 50.30 mg/L in data set [1] (Cycle 3 (water spray)) and 51.00 mg/L in data set [1] (Cycle 4 (water spray)). The “concentration, Cycle 3 T0” value in data set [1] is recorded as 50.50 mg/L. Further, the entries for the “concentration, T6M40° C.” value in data set [1] (Cycle 3 (water spray)) and in data set [1] (Cycle 4 (water spray)) were 48.27 mg/L and 49.35 mg/L, respectively. Moreover, the “concentration, Cycle 4 T0” value in data set [1] (800 ml) is 50.40 mg/L. Also, the “concentration, Unsterilized T0” value in data set [1] (Table 6A (25 ml)) was determined as 51.10 mg/L; in data set [1] (Table 6B (800 ml)), 51.10 mg/L; in data set [1] (Table 7A) it was 52.80 mg/L; in data set [1] (Table 7B, 800 ml) it was 52.80 mg/L.
For the compound `Cc1ncc(CO)c(CO)c1O` [Batch B6, Pyridoxine], the “concentration, T1M40° C.” value amounted to 6.40 mg/L in data set [1] (setting [4]) and 5.93 mg/L in data set [1] (setting [5]). Also, the “concentration, T3M40° C.” value in data set [1] (setting [4]) is reported as 6.50 mg/L; in data set [1] (setting [5]), 6.00 mg/L; in data set [1] (Cycle 3 (water spray)) it was 6.10 mg/L; in data set [1] (Cycle 4 (water spray)), 5.90 mg/L. The “concentration, Cycle 3 T0” value in data set [1] turned out to be 6.23 mg/L. Further, the entries for the “concentration, T6M40° C.” value in data set [1] (Cycle 3 (water spray)) and in data set [1] (Cycle 4 (water spray)) were 6.04 mg/L and 6.03 mg/L, respectively. Also, the “concentration, Cycle 4 T0” value in data set [1] (800 ml) worked out at 6.27 mg/L. In addition, the “concentration, Unsterilized T0” value in data set [1] (Table 6A (25 ml)) was found to be 6.40 mg/L; in data set [1] (Table 6B (800 ml)), 6.40 mg/L; in data set [1] (Table 7A) it was 6.61 mg/L; in data set [1] (Table 7B, 800 ml), 6.61 mg/L.
On to `C/C1=C2/[N-][C@H]([C@H](CC(N)=O)[C@@]2(C)CCC(=O)NC[C@@H](C)OP(=O)([O-])O[C@H]2[C@@H](O)[C@@H](n3cnc4cc(C)c(C)cc43)O[C@@H]2CO)[C@]2(C)N=C(/C(C)=C3N=C(/C=C4N=C1[C@@H](CCC(N)=O)C\4(C)C)[C@@H](CCC(N)=O)[C@]\3(C)CC(N)=O)[C@@H](CCC(N)=O)[C@]2(C)CC(N)=O.[Co+3].[OH-]` [hydroxocobalamin], for which the “time hydroxocobalamin remains relatively stable” value in data set [2] (lipid emulsions, 40° C.) is recorded as “about 6 months”.
Turning to cobalamin [Batch B12], the “concentration, Unsterilized T0” value was found to be 0.015 mg/L in data set [3] (20% lipid emulsion with ascorbyl palmitate, Table 8, before sterilization); 0.014 mg/L in data set [3] (20% lipid emulsion, Table 10, before sterilization); 0.014 mg/L in data set [3] (20% lipid emulsion, Table 11, before sterilization); 0.0062 mg/L in data set [1] (Table 6A (25 ml)); 0.0062 mg/L in data set [1] (Table 6B (800 ml)); 0.006 mg/L in data set [1] (Table 7A). For the same compound, the “concentration, Unsterilized T0” value in data set [1] (Table 7B, 800 ml) came out at 0.006 mg/L. The “concentration, T1M40° C.” value in data set [3] (20% lipid emulsion, Cycle 1 (steam sterilization)) was 4 ng/mL; in data set [3] (20% lipid emulsion, Cycle 2 (steam sterilization)), “<LOD”; in data set [1] (setting [4]), 0.0045 mg/L; in data set [1] (setting [5]) it was 0.0040 mg/L. The “concentration, T3M40° C.” value in data set [3] (20% lipid emulsion, Cycle 1 (steam sterilization), 3 months 40° C.) is on record as “<LOD”; in data set [1] (setting [4]), 0.0037 mg/L; in data set [1] (setting [5]), 0.0036 mg/L; in data set [1] (Cycle 3 (water spray)), 0.0041 mg/L; in data set [1] (Cycle 4 (water spray)), 0.0041 mg/L. Also, the “concentration, Cycle 2 T0” value in data set [3] (20% lipid emulsion, Cycle 2 (steam sterilization), after sterilization) stood at 5 ng/mL. Besides, the “concentration, Cycle 3 T0” value was found to be 5 ng/mL in data set [3] (20% lipid emulsion, Cycle 3 (water spray sterilization), after sterilization) and 0.0051 mg/L in data set [1]. Besides, the “concentration, T6M40° C., sum of cyanocobalamin and hydroxocobalamin” value in data set [3] (20% lipid emulsion, Cycle 3 (water spray)) was 3.7 ng/mL; in data set [3] (20% lipid emulsion, Table 11, head 'Cycle 3', water spray), 5.5 ng/mL; in data set [1] (Cycle 3 (water spray)) it was 0.0023* mg/L; in data set [1] (Cycle 4 (water spray)), 0.0031* mg/L. In addition, the “concentration, T0 after sterilization” value in data set [3] (20% lipid emulsion, Table 11, head 'Cycle 3', water spray sterilization with serial tower continuous equipment) amounted to 6 ng/mL. Also, the “concentration, Cycle 4 T0” value in data set [1] (800 ml) is recorded as 0.0052 mg/L.
Consider cyanocobalamin, for which the cyanocobalamin detection entry in data set [2] (lipid emulsions irrespective of oil source, pH or stabilizing agent, T3M40° C.) was “no more cyanocobalamin can be detected”. Moreover, the “cyanocobalamin detection after 6 months” value in data set [1] (glucose solution, Cycles 1 and 2 (steam sterilization), FIG. 2) is recorded as “no cyanocobalamin can be detected”.
